The source made the active and inactive calls. The rule behind the calls is not given here.

In this data set the test system is rodent lifetime carcinogenesis bioassay, tumor incidence TD50. Kind of data set: chronic cancer bioassays in animals – CPDB, compiled studies (AID 1745844).

As usually defined, the TD50 is the 50% point of the dose-response relation for the toxic effect studied. As to `OC(c1ccc(Cl)cc1)(c1ccc(Cl)cc1)C(Cl)(Cl)Cl`, the carcinogen call is, setting by setting: (mouse, strain B6C3F1, females, in feed, site: any site (literature study), lesion: several types, types named in the paper, dosed 78 weeks, study length 91 weeks) “negative (inactive)”; (rat, strain Osborne-Mendel, females, in feed, site: any site (literature study), lesion: several types, types named in the paper, dosed 78 weeks, study length 111 weeks) “negative (inactive)”; (rat, strain Osborne-Mendel, males, in feed, site: any site (literature study), lesion: several types, types named in the paper, dosed 78 weeks, study length 110 weeks) “negative (inactive)”. Besides, the TD50 reads like this: (mouse, strain B6C3F1, males, in feed, site: any site (literature study), lesion: several types, types named in the paper, dosed 78 weeks, study length 91 weeks) 59.2 mg/kg/day; (mouse, strain B6C3F1, males, in feed, site: liver, lesion: hepatocellular adenoma + hepatocellular carcinoma + neoplastic nodule, dosed 78 weeks, study length 91 weeks) 32.9 mg/kg/day; (mouse, strain B6C3F1, males, in feed, site: liver, lesion: hepatocellular adenoma + hepatocellular carcinoma, dosed 78 weeks, study length 91 weeks) 32.9 mg/kg/day; (mouse, strain B6C3F1, males, in feed, site: liver, lesion: hepatocellular carcinoma, dosed 78 weeks, study length 91 weeks) 34.8 mg/kg/day; (mouse, strain B6C3F1, males, in feed, site: lung, lesion: alveolar/bronchiolar adenoma + alveolar/bronchiolar carcinoma, dosed 78 weeks, study length 91 weeks) 616 mg/kg/day; (rat, strain Osborne-Mendel, males, in feed, site: liver, lesion: hepatocellular adenoma + hepatocellular carcinoma + neoplastic nodule, dosed 78 weeks, study length 110 weeks) 517 mg/kg/day.

Regarding `P`, the TD50 (rat, strain Fischer 344, females, inhaled, site: liver, lesion: hepatocellular adenoma, dosed 104 weeks, study length 104 weeks) was 53.1 mg/kg/day (inactive) and the TD50 (rat, strain Fischer 344, males, inhaled, site: liver, lesion: hepatocellular adenoma, dosed 104 weeks, study length 104 weeks) is 5.69 mg/kg/day (inactive). Moreover, the carcinogen call runs as follows: (rat, strain Fischer 344, females, inhaled, site: liver, lesion: one or several types, types not named, dosed 52 weeks, study length 52 weeks) “negative (inactive)”; (rat, strain Fischer 344, males, inhaled, site: liver, lesion: hepatocellular carcinoma, dosed 104 weeks, study length 104 weeks) “negative (inactive)”; (rat, strain Fischer 344, males, inhaled, site: liver, lesion: one or several types, types not named, dosed 52 weeks, study length 52 weeks) “negative (inactive)”; (rat, strain Sprague-Dawley, females, in feed, site: any site (literature study), lesion: one or several types, types not named, dosed 52 weeks, study length 52 weeks) “negative (inactive)”; (rat, strain Sprague-Dawley, females, in feed, site: any site (literature study), lesion: several types, types named in the paper, dosed 104 weeks, study length 104 weeks) “negative (inactive)”; (rat, strain Sprague-Dawley, males, in feed, site: any site (literature study), lesion: one or several types, types not named, dosed 52 weeks, study length 52 weeks) “negative (inactive)”. Moreover, the carcinogen call (rat, strain Sprague-Dawley, males, in feed, site: any site (literature study), lesion: several types, types named in the paper, dosed 104 weeks, study length 104 weeks) was “negative (inactive)”.

For `N/C(=N\O)c1ccc([N+](=O)[O-])o1`, where the note is “rat, strain Sprague-Dawley, females, in feed, site: any site (literature study), lesion: several types, types named in the paper, dosed 46 weeks, study length 66 weeks”, the TD50 was 42 mg/kg/day (inactive).

For `C1CCCNCCC1`, the TD50 (rat, strain MRC, females, in drinking water, site: any site (literature study), lesion: several types, types named in the paper, dosed 75 weeks, study length 104 weeks) came out at 15.8 mg/kg/day and the TD50 (rat, strain MRC, males, in drinking water, site: any site (literature study), lesion: several types, types named in the paper, dosed 75 weeks, study length 104 weeks) turned out to be 6.37 mg/kg/day.

`C=Cc1ccccc1`: the TD50 (mouse, strain B6C3F1, females, by gavage, site: any site (literature study), lesion: several types, types named in the paper, dosed 78 weeks, study length 91 weeks) came to 625 mg/kg/day; the TD50 (mouse, strain B6C3F1, females, by gavage, site: liver, lesion: hepatocellular adenoma + hepatocellular carcinoma + neoplastic nodule, dosed 78 weeks, study length 91 weeks) was 905 mg/kg/day; the TD50 (mouse, strain B6C3F1, females, by gavage, site: liver, lesion: hepatocellular adenoma, dosed 78 weeks, study length 91 weeks) is 905 mg/kg/day (inactive); the TD50 (mouse, strain B6C3F1, females, by gavage, site: lung, lesion: alveolar/bronchiolar adenoma + alveolar/bronchiolar carcinoma, dosed 78 weeks, study length 91 weeks) turned out to be 1380 mg/kg/day; the TD50 (mouse, strain B6C3F1, males, by gavage, site: any site (literature study), lesion: several types, types named in the paper, dosed 78 weeks, study length 91 weeks) was 659 mg/kg/day; the TD50 (mouse, strain B6C3F1, males, by gavage, site: liver, lesion: hepatocellular adenoma + hepatocellular carcinoma + neoplastic nodule, dosed 78 weeks, study length 91 weeks) is 895 mg/kg/day. Further, the TD50 (mouse, strain B6C3F1, males, by gavage, site: lung, lesion: alveolar/bronchiolar adenoma + alveolar/bronchiolar carcinoma, dosed 78 weeks, study length 91 weeks) stood at 360 mg/kg/day; the TD50 (mouse, strain Charles River CD1, females, inhaled, site: any site (literature study), lesion: several types, types named in the paper, dosed 98 weeks, study length 98 weeks) was 400 mg/kg/day; the TD50 (mouse, strain Charles River CD1, females, inhaled, site: liver, lesion: several types, types named in the paper, dosed 98 weeks, study length 98 weeks) was found to be 13600 mg/kg/day; the TD50 (mouse, strain Charles River CD1, females, inhaled, site: lung, lesion: alveolar/bronchiolar adenoma, dosed 98 weeks, study length 98 weeks) was 331 mg/kg/day; the TD50 (mouse, strain Charles River CD1, females, inhaled, site: lung, lesion: alveolar/bronchiolar carcinoma, dosed 98 weeks, study length 98 weeks) is 1300 mg/kg/day; the TD50 (mouse, strain Charles River CD1, males, inhaled, site: any site (literature study), lesion: several types, types named in the paper, dosed 104 weeks, study length 105 weeks) stood at 209 mg/kg/day. The TD50 was 2860 mg/kg/day (mouse, strain Charles River CD1, males, inhaled, site: liver, lesion: hepatocellular carcinoma, dosed 104 weeks, study length 105 weeks); 465 mg/kg/day (mouse, strain Charles River CD1, males, inhaled, site: lung, lesion: alveolar/bronchiolar adenoma, dosed 78 weeks, study length 78 weeks); 154 mg/kg/day (mouse, strain Charles River CD1, males, inhaled, site: lung, lesion: alveolar/bronchiolar adenoma, dosed 104 weeks, study length 105 weeks); 1770 mg/kg/day (mouse, strain Charles River CD1, males, inhaled, site: lung, lesion: alveolar/bronchiolar carcinoma, dosed 104 weeks, study length 105 weeks); 12200 mg/kg/day (inactive) (rat, strain Charles River CD (Sprague-Dawley), females, inhaled, site: liver, lesion: hepatocellular adenoma, dosed 104 weeks, study length 106 weeks); 9930 mg/kg/day (inactive) (rat, strain Charles River CD (Sprague-Dawley), males, inhaled, site: liver, lesion: several types, types named in the paper, dosed 104 weeks, study length 106 weeks). Further, the TD50 by setting is: (rat, strain Fischer 344, females, by gavage, site: liver, lesion: hepatocellular adenoma + hepatocellular carcinoma + neoplastic nodule, dosed 90 weeks, study length 97 weeks) 25200 mg/kg/day; (rat, strain Fischer 344, males, by gavage, site: any site (literature study), lesion: several types, types named in the paper, dosed 90 weeks, study length 97 weeks) 3410 mg/kg/day (inactive); (rat, strain Sprague-Dawley, females, by gavage, site: any site (literature study), lesion: several types, types named in the paper, dosed 52 weeks, study length 104 weeks) 12 mg/kg/day; (rat, strain Sprague-Dawley, females, inhaled, site: any site (literature study), lesion: malignant tumor, dosed 52 weeks, study length 104 weeks) 205 mg/kg/day; (rat, strain Sprague-Dawley, females, inhaled, site: any site (literature study), lesion: several types, types named in the paper, dosed 52 weeks, study length 104 weeks) 48.7 mg/kg/day; (rat, strain Sprague-Dawley, females, inhaled, site: mammary tissue, wider than the gland, lesion: malignant tumor, dosed 52 weeks, study length 104 weeks) 57.1 mg/kg/day. Further, the TD50 (rat, strain Sprague-Dawley, females, inhaled, site: mammary tissue, wider than the gland, lesion: several types, types named in the paper, dosed 52 weeks, study length 104 weeks) was 23.3 mg/kg/day; the TD50 (rat, strain Sprague-Dawley, males, by gavage, site: any site (literature study), lesion: malignant tumor, dosed 52 weeks, study length 104 weeks) turned out to be 1090 mg/kg/day; the TD50 (rat, strain Sprague-Dawley, males, by gavage, site: any site (literature study), lesion: several types, types named in the paper, dosed 52 weeks, study length 104 weeks) was 1220 mg/kg/day; the TD50 (rat, strain Sprague-Dawley, males, inhaled, site: any site (literature study), lesion: several types, types named in the paper, dosed 52 weeks, study length 104 weeks) is 107 mg/kg/day. The carcinogen call (rat, strain Charles River CD (Sprague-Dawley), females, inhaled, site: liver, lesion: one or several types, types not named, dosed 52 weeks, study length 52 weeks) was “negative (inactive)”; the carcinogen call (rat, strain Charles River CD (Sprague-Dawley), males, inhaled, site: liver, lesion: one or several types, types not named, dosed 52 weeks, study length 52 weeks) is “negative (inactive)”; the carcinogen call (rat, strain Fischer 344, females, by gavage, site: any site (literature study), lesion: several types, types named in the paper, dosed 90 weeks, study length 97 weeks) was “negative (inactive)”.

Consider `CC=CCl`, for which the TD50 is, setting by setting: (mouse, strain Ha/ICR, females, by gavage, site: forestomach, lesion: one or several types, types not named, dosed 89 weeks, study length 89 weeks) 5.05 mg/kg/day; (mouse, strain Ha/ICR, males, by gavage, site: forestomach, lesion: one or several types, types not named, dosed 89 weeks, study length 89 weeks) 16.7 mg/kg/day.

With `CN(C)CCN(Cc1cccs1)c1ccccn1`, the TD50 (hamster, strain Syrian Golden, males, by gavage, site: liver, lesion: neoplastic nodule, dosed 58 weeks, study length 61 weeks) stood at 150 mg/kg/day; the TD50 (rat, strain Fischer 344, females, in feed, site: liver, lesion: hepatocellular carcinoma, dosed 110 weeks, study length 133 weeks) is 61.6 mg/kg/day; the TD50 (rat, strain Fischer 344, females, in feed, site: liver, lesion: neoplastic nodule, dosed 110 weeks, study length 133 weeks) was found to be 11.8 mg/kg/day; the TD50 (rat, strain Fischer 344, females, in feed, site: liver, lesion: several types, types named in the paper, dosed 110 weeks, study length 133 weeks) is 7.65 mg/kg/day; the TD50 (rat, strain Fischer 344, males, in feed, site: liver, lesion: cholangiocarcinoma, dosed 110 weeks, study length 133 weeks) came to 400 mg/kg/day; the TD50 (rat, strain Fischer 344, males, in feed, site: liver, lesion: hepatocellular carcinoma, solid, dosed 73 weeks, study length 73 weeks) was 26.4 mg/kg/day. The TD50 runs as follows: (rat, strain Fischer 344, males, in feed, site: liver, lesion: hepatocellular carcinoma, trabecular, dosed 73 weeks, study length 73 weeks) 26.4 mg/kg/day; (rat, strain Fischer 344, males, in feed, site: liver, lesion: hepatocellular carcinoma, dosed 73 weeks, study length 73 weeks) 14.7 mg/kg/day; (rat, strain Fischer 344, males, in feed, site: liver, lesion: hepatocellular carcinoma, dosed 110 weeks, study length 133 weeks) 77 mg/kg/day; (rat, strain Fischer 344, males, in feed, site: liver, lesion: neoplastic nodule, dosed 110 weeks, study length 133 weeks) 11.1 mg/kg/day; (rat, strain Fischer 344, males, in feed, site: liver, lesion: several types, types named in the paper, dosed 110 weeks, study length 133 weeks) 7.7 mg/kg/day. For the same molecule, the carcinogen call (rat, strain Fischer 344, males, in feed, site: liver, lesion: basophil adenoma, dosed 73 weeks, study length 73 weeks) was “positive” and the carcinogen call (rat, strain Fischer 344, males, in feed, site: liver, lesion: eosinophilic adenoma, dosed 73 weeks, study length 73 weeks) is “positive”.

Values taken from PubChem BioAssay AID1745844 (Carcinogenic Potency Database (CPDB), 2022).
